Measured values: ChEMBL document CHEMBL5338785, “Development of Aromatic-Linked Diamino Acid Antimicrobial Peptide Mimics with Low Hemolytic Toxicity and Excellent Activity against Methicillin-Resistant Staphylococcus aureus (MRSA)” (J Med Chem, 2023)
Converted amounts (≈) assume the structure as drawn.

How the values were obtained:
Enterococcus faecalis = assay: Antibacterial activity against Enterococcus faecalis assessed as bacterial growth inhibition incubated for 18 hrs by CLSI protocol based Mueller-Hinton broth assay; format: functional; details: Enterococcus faecalis, 18 h, read-out: MIC
Escherichia coli = assay: Antibacterial activity against Escherichia coli assessed as bacterial growth inhibition incubated for 18 hrs by CLSI protocol based Mueller-Hinton broth assay; format: functional; details: Escherichia coli, read-out: MIC
[1] = Hemolytic activity in sheep RBC assessed as hemolysis incubated for 1 hr by microplate reader method; format: toxicity, cell-based, Ovis aries, Erythrocyte; details: sheep red blood cells
[2] = system: Stenotrophomonas maltophilia; assay: Antibacterial activity against Stenotrophomonas maltophilia assessed as bacterial growth inhibition incubated for 18 hrs by CLSI protocol based Mueller-Hinton broth assay; format: functional; details: Stenotrophomonas maltophilia, read-out: MIC
Staphylococcus aureus = assay: Antibacterial activity against methicillin-resistant Staphylococcus aureus assessed as bacterial growth inhibition incubated for 18 hrs by CLSI protocol based Mueller-Hinton broth assay; format: functional; details: Staphylococcus aureus, read-out: MIC
[3] = Selectivity index, ratio of HC50 for hemolytic activity in sheep RBC to MIC for antibacterial activity against methicillin-resistant Staphylococcus aureus assessed as bacterial growth inhibition; format: toxicity; details: sheep red blood cells

Row | SMILES | MIC (Enterococcus faecalis) | MIC (Escherichia coli; 18 h) | HC50 at 1 h [1] | MIC [2] | MIC (Staphylococcus aureus) | selectivity ratio [3] | MIC (Escherichia coli)
1 | CCCCCCCCN(CCCOc1ccc2ccccc2c1-c1c(OCCCN(CCCCCCCC)C(=O)[C@@H](N)CCCCN)ccc2ccccc12)C(=O)[C@@H](N)CCCCN.Cl.Cl.Cl.Cl (stereo in doubt; 8o) | 2 µg/mL | 8 µg/mL | 100 µg/mL | 4 µg/mL | 4 µg/mL | 25 | –
2 | CCCCCCCCN(CCCOc1ccccc1)C(=O)[C@@H](N)CCCCN.Cl.Cl | 4 µg/mL | 32 µg/mL | 275 µg/mL | 16 µg/mL | 8 µg/mL | 34 | –
3 | C[C@@H](O)[C@H]1C(=O)N2C(C(=O)O)=C(S[C@@H]3CN[C@H](C(=O)N(C)C)C3)[C@H](C)[C@H]12 [MEROPENEM] | – | – | – | – | – | – | 0.062 µg/mL (≈ 0.162 µM)
4 | CCCCCCCCN(CCOc1ccc(OCCN(CCCCCCCC)C(=O)[C@@H](N)CCCCN)cc1)C(=O)[C@@H](N)CCCCN.Cl.Cl.Cl.Cl | 0.5 µg/mL | 2 µg/mL | 93 µg/mL | 1 µg/mL | 1 µg/mL | 93 | –
5 | CCCCCCCCCCN(CCCOc1ccccc1-c1ccccc1OCCCN(CCCCCCCCCC)C(=O)[C@@H](N)CCCCN)C(=O)[C@@H](N)CCCCN.Cl.Cl.Cl.Cl | 8 µg/mL | 8 µg/mL | 40 µg/mL | 8 µg/mL | 8 µg/mL | 5 | –
6 | CCCCCCCCN(CCCOc1ccccc1-c1ccccc1OCCCN(CCCCCCCC)C(=O)[C@@H](N)CCCCN)C(=O)[C@@H](N)CCCCN.Cl.Cl.Cl.Cl | 1 µg/mL | 2 µg/mL | 20 µg/mL | 2 µg/mL | 4 µg/mL | 5 | –
7 | CCCCCCN(CCOc1ccc(OCCN(CCCCCC)C(=O)[C@@H](N)CCCCN)cc1)C(=O)[C@@H](N)CCCCN.Cl.Cl.Cl.Cl | 8 µg/mL | 64 µg/mL | > 1000 µg/mL | 64 µg/mL | 4 µg/mL | > 250 | –
8 | CCCCCCCCCN(CCCOc1ccccc1)C(=O)[C@@H](N)CCCCN.Cl.Cl | 2 µg/mL | 8 µg/mL | 89 µg/mL | 8 µg/mL | 2 µg/mL | 45.5 | –
9 | CCCCCCCCN(CCCOc1cccc(-c2cccc(OCCCN(CCCCCCCC)C(=O)[C@@H](N)CCCCN)c2)c1)C(=O)[C@@H](N)CCCCN.Cl.Cl.Cl.Cl | 1 µg/mL | 2 µg/mL | 15 µg/mL | 2 µg/mL | 2 µg/mL | 7.5 | –
10 | CCCCCCCN(CCOc1ccc(OCCN(CCCCCCC)C(=O)[C@@H](N)CC(C)C)cc1)C(=O)[C@@H](N)CC(C)C.Cl.Cl | 0.5 µg/mL | 2 µg/mL | 36 µg/mL | 1 µg/mL | < 0.25 µg/mL | > 144 | –
11 | CCCCCCCN(CCOc1ccc(OCCN(CCCCCCC)C(=O)[C@@H](N)Cc2ccccc2)cc1)C(=O)[C@@H](N)Cc1ccccc1.Cl.Cl | 1 µg/mL | > 128 µg/mL | 145 µg/mL | > 128 µg/mL | 2 µg/mL | 72.5 | –
12 | CCCCCCCN(CCCOc1ccccc1)C(=O)[C@@H](N)CCCCN.Cl.Cl | 16 µg/mL | 128 µg/mL | 773 µg/mL | 64 µg/mL | 32 µg/mL | 24.2 | –
13 | CCCCCCCN(CCOc1ccc(OCCN(CCCCCCC)C(=O)[C@@H](N)[C@@H](C)CC)cc1)C(=O)[C@@H](N)[C@@H](C)CC.Cl.Cl | 1 µg/mL | 2 µg/mL | 47 µg/mL | 2 µg/mL | 0.5 µg/mL | 94 | –
14 | CCCCCCCCN(CCCOc1cc2ccccc2cc1OCCCN(CCCCCCCC)C(=O)[C@@H](N)CCCCN)C(=O)[C@@H](N)CCCCN.Cl.Cl.Cl.Cl | 1 µg/mL | 2 µg/mL | 68 µg/mL | 1 µg/mL | 1 µg/mL | 68 | –
15 | CCCCCCCCCN(CCCCOc1ccc(OCCCCN(CCCCCCCCC)C(=O)[C@@H](N)CCCCN)cc1)C(=O)[C@@H](N)CCCCN.Cl.Cl.Cl.Cl | 1 µg/mL | 2 µg/mL | 12 µg/mL | 1 µg/mL | 2 µg/mL | 6 | –
16 | CCCCCCCCN(CCCOc1ccc2c(OCCCN(CCCCCCCC)C(=O)[C@@H](N)CCCCN)cccc2c1)C(=O)[C@@H](N)CCCN.Cl.Cl.Cl.Cl | 1 µg/mL | 1 µg/mL | 14 µg/mL | 1 µg/mL | 1 µg/mL | 14 | –
17 | CCCCN(CCCOc1ccccc1-c1ccccc1OCCCN(CCCC)C(=O)[C@@H](N)CCCCN)C(=O)[C@@H](N)CCCCN.Cl.Cl.Cl.Cl | 8 µg/mL | 32 µg/mL | > 1000 µg/mL | 32 µg/mL | 8 µg/mL | > 125 | –
18 | CCCCCCCCCN(CCCOc1ccc(OCCCN(CCCCCCCCC)C(=O)[C@@H](N)CCCCN)cc1)C(=O)[C@@H](N)CCCCN.Cl.Cl.Cl.Cl | 1 µg/mL | 2 µg/mL | 11 µg/mL | 1 µg/mL | 2 µg/mL | 10.5 | –
19 | CCCCCCCN(CCCCOc1ccc(OCCCCN(CCCCCCC)C(=O)[C@@H](N)CCCCN)cc1)C(=O)[C@@H](N)CCCCN.Cl.Cl.Cl.Cl | 1 µg/mL | 1 µg/mL | 148 µg/mL | 1 µg/mL | 2 µg/mL | 74 | –
20 | CCCCCCCCCCN(CCOc1ccc(OCCN(CCCCCCCCCC)C(=O)[C@@H](N)CCCCN)cc1)C(=O)[C@@H](N)CCCCN.Cl.Cl.Cl.Cl | 2 µg/mL | 4 µg/mL | < 2.5 µg/mL | 2 µg/mL | 4 µg/mL | < 0.625 | –
21 | CCCCCCN(CCCOc1ccc(-c2ccc(OCCCN(CCCCCC)C(=O)[C@@H](N)CCCCN)cc2)cc1)C(=O)[C@@H](N)CCCCN.Cl.Cl.Cl.Cl | 1 µg/mL | 1 µg/mL | 170 µg/mL | 1 µg/mL | 1 µg/mL | 170 | –
22 | CCCCCCCCN(CCCCOc1ccc(OCCCCN(CCCCCCCC)C(=O)[C@@H](N)CCCCN)cc1)C(=O)[C@@H](N)CCCCN.Cl.Cl.Cl.Cl | 1 µg/mL | 2 µg/mL | 28 µg/mL | 1 µg/mL | 2 µg/mL | 14 | –
23 | CCCCCCN(CCCOc1cccc(-c2cccc(OCCCN(CCCCCC)C(=O)[C@@H](N)CCCCN)c2)c1)C(=O)[C@@H](N)CCCCN.Cl.Cl.Cl.Cl | 0.5 µg/mL | 1 µg/mL | 216 µg/mL | 1 µg/mL | 0.5 µg/mL | 432 | –
24 | CCCCCCN(CCCOc1ccccc1OCCCN(CCCCCC)C(=O)[C@@H](N)CCCCN)C(=O)[C@@H](N)CCCCN.Cl.Cl.Cl.Cl | 8 µg/mL | 64 µg/mL | > 1000 µg/mL | 32 µg/mL | 8 µg/mL | > 125 | –
25 | CCCCCCCCCN(CCOc1ccc(OCCN(CCCCCCCCC)C(=O)[C@@H](N)CCCCN)cc1)C(=O)[C@@H](N)CCCCN.Cl.Cl.Cl.Cl | 1 µg/mL | 2 µg/mL | 21 µg/mL | 2 µg/mL | 2 µg/mL | 10.5 | –
26 | CCCCCCCCN(CCCOc1ccc(OCCCN(CCCCCCCC)C(=O)[C@@H](N)CCCCN)cc1)C(=O)[C@@H](N)CCCCN.Cl.Cl.Cl.Cl | 1 µg/mL | 2 µg/mL | 37 µg/mL | 1 µg/mL | 2 µg/mL | 18.5 | –
27 | CCCCCCN(CCCOc1ccccc1)C(=O)[C@@H](N)CCCCN.Cl.Cl | 64 µg/mL | 128 µg/mL | > 1000 µg/mL | 128 µg/mL | 64 µg/mL | > 15.6 | –
